Read-outs that look alike come from different tables or passages of the source.

Assay [1] has as its target T1, HCV-NS5BΔ21 RdRp genotype 1b (strain J4) (Hepatitis C virus genotype 1b, UniProt O92972). As to the kind of experiment: biochemical. As to conditions: range over three genotypes; read-out: IC50 in the enzyme assay, genotypes 1b, 1a and 2a. Here is the method: (§1) The HCV RdRps (NS5B protein) from reference strains H77 (genotype 1a), J4 (genotype 1b) and JFH1 (genotype 2a), truncated of their 21 C-terminal amino acids to ensure solubility (NS5BΔ21) and carrying a hexahistidine tag (His6-Tag) at their N-terminus, were expressed in Escherichia coli C41(DE3) and purified as previously described ([20]). Briefly, cultures were grown at 37°C for ∼1 h and induced with 1 mM isopropyl β-D-thiogalactoside for 4 h at 37°C. […] After sonication, cell lysates were clarified by centrifugation, and chromatography was performed on a Ni-NTA column (Qiagen, Hilden, Germany). The bound protein was eluted in 1 ml fractions with a buffer containing 50 mM NaH2PO4 (pH 8.0), 500 mM NaCl and 250 mM imidazole. NS5BΔ21-enriched fractions were selected using a Bradford colorimetric assay, and HCV-NS5BΔ21 purity was determined by Coomassie-stained sodium dodecyl sulfate-polyacrylamide electrophoresis gel (SDS-PAGE) analysis. Purified NS5BΔ21 fractions were pooled and dialyzed against a buffer containing 5 mM Tris (pH 7.5), 0.2 M sodium acetate, 1 mM DTT, 1 mM ethylenediaminetetraacetic acid (EDTA) and 10% glycerol. […]

The target of assay [2] is T2, HCV-NS5BΔ21 RdRp genotype 1a (strain H77) (Hepatitis C virus genotype 1a, UniProt P27958).
T2 construct: His6 (N); made in house; host or cells: Escherichia coli C41(DE3)
T2 sequence (P27958 2421-2990, stated change not applied): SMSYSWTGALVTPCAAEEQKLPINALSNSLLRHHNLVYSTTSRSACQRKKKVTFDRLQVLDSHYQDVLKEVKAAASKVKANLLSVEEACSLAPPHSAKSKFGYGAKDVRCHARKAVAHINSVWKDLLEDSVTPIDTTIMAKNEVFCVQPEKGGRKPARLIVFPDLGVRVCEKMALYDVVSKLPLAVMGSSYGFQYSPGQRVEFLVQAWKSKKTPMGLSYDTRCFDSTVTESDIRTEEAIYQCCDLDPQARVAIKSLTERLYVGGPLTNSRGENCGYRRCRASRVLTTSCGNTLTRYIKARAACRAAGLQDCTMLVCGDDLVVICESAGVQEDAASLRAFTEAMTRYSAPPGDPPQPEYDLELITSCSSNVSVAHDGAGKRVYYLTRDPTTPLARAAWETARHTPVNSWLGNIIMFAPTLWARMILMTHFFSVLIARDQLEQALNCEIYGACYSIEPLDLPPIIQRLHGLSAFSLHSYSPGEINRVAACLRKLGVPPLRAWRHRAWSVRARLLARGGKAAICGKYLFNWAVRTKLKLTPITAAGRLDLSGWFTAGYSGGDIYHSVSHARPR
Briefly: cell-free HCV-NS5BΔ21 polymerase assay, genotype 1a (H77). Type of assay: biochemical. Here is the method:
as §1

Assay [3] addresses T3, HCV-NS5BΔ21 RdRp genotype 2a (strain JFH1) (Hepatitis C virus genotype 2a, UniProt Q99IB8).
T3 construct: His6 (N); made in house; host or cells: Escherichia coli C41(DE3)
As to the kind of experiment: cell-free HCV-NS5BΔ21 polymerase assay, genotype 2a (JFH1). The format is biochemical. On the procedure:
as §1

Assay [4] has as its system HCV genotype 1b subgenomic replicon Con1. Briefly: microbe, parasite or virus in culture. Particulars: Hepatitis C virus, Huh7.5, 72 h, read-out: EC50 replicon replication. On the procedure: Each data point represents the average of at least three replicates in cell culture. HCV RNA level reductions after treatment were assessed by comparing the level of HCV RNA in compound-treated cells to that of control cells treated with 1% DMSO.
In general terms: A replicon is a self-replicating genome or part of one, used to study replication in cells.

Assay [5] concerns genotype 2a infectious J6/JFH1 strain. As to the kind of experiment: J6/JFH1 infection in cell culture (HCVcc, Huh7.5 cells). The format is cell-based. As to conditions: Hepatitis C virus, Huh7.5, 72 h, read-out: EC50 J6/JFH1 replication. On the procedure:
The plasmid pFL-R-luc2A-ubi-J6/JFH1, containing the full-length cDNA of the chimeric J6/JFH1 HCV genotype 2a clone and the Renilla luciferase gene, was used to generate infectious HCV particles (HCVcc) in Huh7.5 cell culture. Huh7.5 cells were seeded in 48-well plates at a density of 10 000 cells/well, infected 24 h later with 100 μl of HCVcc and incubated overnight at 37°C. After incubation, the supernatants were removed and J6/JFH1-infected cells were washed with fresh medium. Increasing concentrations of the tested compounds were added in a medium containing 1% DMSO, and the cells were incubated 72 h at 37°C. Then, the cells were washed once with Dulbecco's PBS (Invitrogen), and 75 μl Renilla lysis buffer (Promega) was added to each well. Note that 20 μl of lysate was mixed with the luciferase assay substrate, as specified by the manufacturer. Luciferase activity was measured for 10 s in a Berthold luminometer.

The target in assay [6] is T4, RNA binding to HCV-NS5BΔ21 (Hepatitis C virus genotype 1b, UniProt O92972).
T4 construct: made in house; host or cells: Escherichia coli C41(DE3)
T4 sequence (O92972 2420-2989, stated change not applied): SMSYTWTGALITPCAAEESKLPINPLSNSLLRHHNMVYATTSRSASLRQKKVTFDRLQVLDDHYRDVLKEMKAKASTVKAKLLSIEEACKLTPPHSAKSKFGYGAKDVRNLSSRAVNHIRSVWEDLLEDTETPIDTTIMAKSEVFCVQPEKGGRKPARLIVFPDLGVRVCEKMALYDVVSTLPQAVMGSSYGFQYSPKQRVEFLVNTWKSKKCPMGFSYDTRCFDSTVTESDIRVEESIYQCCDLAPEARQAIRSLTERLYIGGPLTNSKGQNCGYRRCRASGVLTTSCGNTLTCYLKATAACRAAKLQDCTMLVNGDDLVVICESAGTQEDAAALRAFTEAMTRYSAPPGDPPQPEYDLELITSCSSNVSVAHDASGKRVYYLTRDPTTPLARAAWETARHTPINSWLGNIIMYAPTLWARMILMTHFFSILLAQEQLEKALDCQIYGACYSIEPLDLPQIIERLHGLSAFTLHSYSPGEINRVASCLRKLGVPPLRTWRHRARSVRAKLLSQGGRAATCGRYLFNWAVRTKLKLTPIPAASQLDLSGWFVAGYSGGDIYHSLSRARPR
Briefly: HCV-NS5BΔ21-RNA ELISA assay. As to conditions: dose-dependent. (In general: In an ELISA, binding on a coated surface is turned into a signal by an enzyme label.)
Experimental: Ninety-six-well plates were coated with streptavidin (100 μg/ml in 0.1 M NaHCO3, 50 μl/well) overnight at 4°C. The plates were washed six times with 200 μl phosphate-buffered saline (PBS)-T and blocked with 50 μl of 3% BSA and 0.1 μg/ml of streptavidin in PBS overnight at 4°C, then four times with 0.1% PBS-Tween. A mix of 5 pmol of biotinylated RNA and 0.5 μg of HCV-NS5BΔ21 previously incubated for 30 min at 37°C in a binding buffer containing 50 mM Tris (pH 7.5), 150 mM NaCl, 0.02 mg/ml yeast tRNA and 0.2 mg/ml BSA was added (50 μl/well) and incubated 1 h at room temperature. The plates were washed six times with 200 μl/well PBS-T, and the 6His mAB/HRP conjugate (Clontech, Mountain View, CA, USA) in PBS 1:1000 (50 μl/well) was added and incubated for 1 h at room temperature. The plates were washed six times with 200 μl/well PBS-T. A mix of enhanced chemiluminescence reagent was added (50 μl/well) and luminescence was measured.

The target of assay [7] is T4, RNA binding to HCV-NS5BΔ21. As to the kind of experiment: RNA binding assay (EMSA). As to conditions: fixed concentration of HCV-NS5BΔ21, increasing compound. Here is the method:
RNA binding was studied by means of the electrophoretic mobility shift assay (EMSA) with minor modifications. Briefly, 0.5 μg/ml of HCV-NS5BΔ21 was incubated with 1 μg of a 500 bp RNA at 37°C for 30 min in 20 μl of a binding buffer containing 10 mM Tris pH 7.5, 1 mM EDTA, 100 mM KCl, 0.1 mM DTT, 5% vol/vol glycerol, 10 μg/ml bovine serum albumin (BSA), in the presence of increasing concentrations of the tested compound. Samples were then loaded onto a non-denaturing agarose gel. The gel was incubated 20 min in SYBR green EMSA Nucleic Acid Gel Stain (Invitrogen, Carlsbad, CA, USA). After washing, the gel was visualized under ultraviolet transillumination.
In general terms: In EMSA bound probe runs differently from free probe, usually more slowly.

The target in assay [8] is T5, HCV-NS5BΔ21 RdRp mutants (Hepatitis C virus genotype 1b, UniProt O92972, F2581Y).
T5 construct: His6 (N); made in house; host or cells: Escherichia coli C41(DE3)
T5 sequence (O92972 2420-2989 F2581Y): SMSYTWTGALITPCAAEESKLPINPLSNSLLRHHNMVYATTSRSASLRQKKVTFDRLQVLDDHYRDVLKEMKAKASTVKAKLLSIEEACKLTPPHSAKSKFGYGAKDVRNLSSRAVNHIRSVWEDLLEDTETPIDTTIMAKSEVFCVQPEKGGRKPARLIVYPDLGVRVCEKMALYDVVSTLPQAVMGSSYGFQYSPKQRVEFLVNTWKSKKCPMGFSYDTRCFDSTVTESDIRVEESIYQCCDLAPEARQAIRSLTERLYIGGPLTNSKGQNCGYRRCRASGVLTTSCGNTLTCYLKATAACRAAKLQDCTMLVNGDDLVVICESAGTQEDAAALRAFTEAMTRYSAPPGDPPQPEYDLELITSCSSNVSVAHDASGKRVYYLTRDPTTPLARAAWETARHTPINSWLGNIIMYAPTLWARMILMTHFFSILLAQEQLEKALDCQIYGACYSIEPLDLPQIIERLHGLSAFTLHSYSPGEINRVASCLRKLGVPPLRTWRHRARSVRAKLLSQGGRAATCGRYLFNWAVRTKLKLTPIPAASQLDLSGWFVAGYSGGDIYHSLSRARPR
Type of assay: biochemical. Particulars: F162Y variant (33% of wild-type activity at baseline). An excerpt:
(§2) The cell-free HCV-NS5BΔ21 polymerase assay is based on the real-time measurement of the amount of double-stranded RNA synthesized in the presence of HCV-NS5BΔ21, a homopolymeric RNA template (poly U or poly C, GE Healthcare, Chalfont St. Giles, UK) and the corresponding nucleotide, by means of an intercalating agent (SYBR® Green, Applied Biosystems, Carlsbad, CA, USA), as previously described ([20]). For screening, HCV-NS5BΔ21 polymerase activity was quantified by the slope of fluorescence increase in the presence of 20 μM of the tested flavonoid compounds and compared with the control reaction containing no inhibitor. […] The reported values are the average of three independent measurements performed in duplicate. For kinetics analysis, initial reaction velocities were measured at different nucleotide (adenosine triphosphate (ATP) or GTP) and studied compound concentrations, without pre-incubation and in the presence of 50 μg/ml of the corresponding homopolymeric RNA template (Poly U and Poly C, respectively). The concentration of NS5BΔ21 (J4 strain, genotype 1b) in the reaction was 0.1 mg/ml. Kinetics data were graphically represented as double reciprocal plots. Data points were fitted by linear regression to identify the inhibition mode of the compound.

For assay [9], the target named is T6, HCV-NS5BΔ21 RdRp mutants (Hepatitis C virus genotype 1b, UniProt O92972, V2535I).
T6 construct: His6 (N); made in house; host or cells: Escherichia coli C41(DE3)
T6 sequence (O92972 2420-2989 V2535I): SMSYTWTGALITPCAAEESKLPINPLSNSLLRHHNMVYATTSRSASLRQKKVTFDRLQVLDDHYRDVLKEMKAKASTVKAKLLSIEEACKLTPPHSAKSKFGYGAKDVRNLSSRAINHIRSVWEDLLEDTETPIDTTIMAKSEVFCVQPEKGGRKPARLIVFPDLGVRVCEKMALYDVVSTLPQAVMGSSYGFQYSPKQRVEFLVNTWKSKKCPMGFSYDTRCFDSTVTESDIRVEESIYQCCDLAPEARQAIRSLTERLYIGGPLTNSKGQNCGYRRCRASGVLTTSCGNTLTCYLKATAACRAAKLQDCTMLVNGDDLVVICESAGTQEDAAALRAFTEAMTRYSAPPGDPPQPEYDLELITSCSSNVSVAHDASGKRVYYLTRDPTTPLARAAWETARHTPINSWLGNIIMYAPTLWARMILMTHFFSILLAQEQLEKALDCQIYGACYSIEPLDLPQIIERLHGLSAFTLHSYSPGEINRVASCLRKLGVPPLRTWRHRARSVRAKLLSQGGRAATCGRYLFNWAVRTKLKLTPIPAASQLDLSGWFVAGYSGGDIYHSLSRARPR
The format is biochemical. Particulars: enzyme assay and genotype 1b subgenomic replicon, data not shown.
From the text: as §2

For assay [10], the system named is HCV-NS5BΔ21 RdRp mutants. Type of assay: biochemical, hepatitis C virus. As to conditions: S96A and G557A mutants.
From the text: as §2

In assay [11] the test system is RNA duplex. As to the kind of experiment: RNA duplex fluorescence assay. As to conditions: 20 μM compound.
In assay [12] the test system is HCV NS5B protein expression. Briefly: Western blot analysis of NS5B in Con1 replicon cells. The format is cell-based, hepatitis C virus. As to conditions: Huh7.5 cells, 72 h, increasing concentrations. Here is the method:
HCV Con1 replicon-harboring cells were seeded at a density of 90 000 cells per well in 6-well plates. […] NS5B and actin were detected using specific monoclonal antibodies (Enzo Life Sciences, Firmingdale, NY, USA and Sigma Aldrich, Saint Louis, MO, USA, respectively).

In assay [13] the target is T1, HCV-NS5BΔ21 RdRp genotype 1b (strain J4). As to the kind of experiment: biochemical. On the set-up: His6 (N); made in house; host or cells: Escherichia coli C41(DE3). As to conditions: for inhibition at 20 µM / Slope of fluorescence increase: 20 μM compound; for Slope of fluorescence increase: no treatment control slope 62.0. On the procedure:
The HCV RdRps (NS5B protein) from reference strains H77 (genotype 1a), J4 (genotype 1b) and JFH1 (genotype 2a), truncated of their 21 C-terminal amino acids to ensure solubility (NS5BΔ21) and carrying a hexahistidine tag (His6-Tag) at their N-terminus, were expressed in Escherichia coli C41(DE3) and purified as previously described ([20]). Briefly, cultures were grown at 37°C for ∼1 h and induced with 1 mM isopropyl β-D-thiogalactoside for 4 h at 37°C. […] After sonication, cell lysates were clarified by centrifugation, and chromatography was performed on a Ni-NTA column (Qiagen, Hilden, Germany). The bound protein was eluted in 1 ml fractions with a buffer containing 50 mM NaH2PO4 (pH 8.0), 500 mM NaCl and 250 mM imidazole. NS5BΔ21-enriched fractions were selected using a Bradford colorimetric assay, and HCV-NS5BΔ21 purity was determined by Coomassie-stained sodium dodecyl sulfate-polyacrylamide electrophoresis gel (SDS-PAGE) analysis. Purified NS5BΔ21 fractions were pooled and dialyzed against a buffer containing 5 mM Tris (pH 7.5), 0.2 M sodium acetate, 1 mM DTT, 1 mM ethylenediaminetetraacetic acid (EDTA) and 10% glycerol.
as §2

T1 sequence (O92972 2420-2989, stated change not applied): as the sequence (O92972 2420-2989, stated change not applied) above

The IC50 is the concentration at which inhibition is half-maximal. The inhibition is the relative decrease from the control value, in per cent. Read a low inhibition as a weak effect. In the case of `O=c1c(O)c(-c2ccc(O)c(O)c2)oc2cc(O)c(O)c(O)c12` [Quercetagetin], the IC50 in [1] was 2.8 to 6.1 µM; in assay [2] it was 2.8 ± 0.4 µM; in assay [3], 6.1 ± 1.6 µM; in assay [13] (genotype 1b (strain J4), read-out: IC50 HCV-NS5BΔ21 polymerase activity), 4.3 ± 0.7 µM. For the same compound, the EC50 in assay [4] is 5.4 ± 3.3 µM; in assay [5], 40.2 ± 17.7 µM. The “inhibition of RNA binding, EC50” value in assay [6] is listed as “of the same order as that in the enzyme assay”. For the same compound, the “amount of free RNA” value in assay [7] is “increased in a quercetagetin concentration-dependent manner”. In addition, the “reduction of catalytic activity by the compound” value in [8] was 3 fold. For the same compound, the “susceptibility of V116I variant” value in assay [9] is listed as “did not reduce”. Also, in [10], the change of susceptibility entry was “No change”. Further, in assay [11], the RNA duplex formation result was “not inhibited”. In [12], the NS5B protein expression entry was “inhibited NS5B protein expression in a dose-dependent manner”. This compound returned an inhibition at 20 µM in [13] of 85.6%. Further, in assay [13], the “Slope of fluorescence increase” value was found to be 8.9. Besides, the “mode of inhibition (double-reciprocal plots)” value in [13] (increasing ATP or GTP with poly-U or poly-C) is “non-competitive”.

On to `C[C@@H]1O[C@@H](OC[C@H]2O[C@@H](Oc3c(-c4ccc(O)c(O)c4)oc4cc(O)cc(O)c4c3=O)[C@H](O)[C@@H](O)[C@@H]2O)[C@H](O)[C@H](O)[C@H]1O` [Rutin], for which, in assay [13], at 20 µM the inhibition was 30.3% and the “Slope of fluorescence increase” value is on record as 43.2.

Consider `O=c1cc(-c2ccc(O)cc2)oc2cc(O)c(O)c(O)c12` [Scutellarein], for which, in assay [13], 20 µM produced 67.4% inhibition and the “Slope of fluorescence increase” value came out at 20.2.

For the compound `O=c1cc(-c2cc(O)c(O)c(O)c2)oc2cc(O)cc(O)c12` [Tricetin], in [13], 20 µM produced 69.5% inhibition and the “Slope of fluorescence increase” value is 18.9.

For the origin of these results see article PMC4132742, “Inhibition of RNA binding to hepatitis C virus RNA-dependent RNA polymerase: a new mechanism for antiviral intervention” (Nucleic Acids Research, 2014).
